Experimental data reported in patent publication US10988478B1, “Pyrazolo[1,5a]pyrimidine derivatives as IRAK4 modulators” (Genentech, Inc., priority 2015, dated 2021).

biological target: human IRAK4 (Homo sapiens (Human), UniProt Q9NWZ3); test: IRAK4 kinase inhibition, Transcreener fluorescence polarization ADP assay; type: biochemical; settings: recombinant full-length His6-IRAK4; 125 uM ATP; 90 min; Ki computed using ATP Km 642 uM
Protocol: Compounds were assayed for inhibition of human IRAK4 and IRAK1 catalytic activity using recombinant enzyme produced from insect cells. Full-length IRAK4 protein, carrying an N-terminal His6-Tag, was obtained from Life Technologies (Carlsbad, Calif., USA). The IRAK1 construct was produced internally and was comprised of IRAK1 residues Arg194 to Ser712, preceded by an NH2-terminal His6 tag and the coding sequence for glutathione-S-transferase.

Chain of human IRAK4 (Q9NWZ3 whole entry, the tested form may be a part): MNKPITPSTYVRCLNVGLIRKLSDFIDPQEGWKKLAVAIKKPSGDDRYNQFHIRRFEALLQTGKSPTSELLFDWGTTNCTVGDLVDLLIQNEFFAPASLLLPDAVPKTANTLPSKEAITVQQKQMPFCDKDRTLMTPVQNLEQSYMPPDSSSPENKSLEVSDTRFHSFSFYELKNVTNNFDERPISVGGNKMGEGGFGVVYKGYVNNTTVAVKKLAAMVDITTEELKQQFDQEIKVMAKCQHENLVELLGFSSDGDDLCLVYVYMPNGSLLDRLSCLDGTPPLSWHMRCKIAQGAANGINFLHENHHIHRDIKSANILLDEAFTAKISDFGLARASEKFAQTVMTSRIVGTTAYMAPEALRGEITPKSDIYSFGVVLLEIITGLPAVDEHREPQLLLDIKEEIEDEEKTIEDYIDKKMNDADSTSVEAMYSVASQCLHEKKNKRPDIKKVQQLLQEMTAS

Compared with `C[C@@]1(CO)Cc2cc(NC(=O)c3cnn4cccnc34)c(N3Cc4cccnc4C3)cc2O1` [Example 420, (S)-N-(6-(5,7-dihydro-6H-pyrrolo[3,4-b]pyridin-6-yl)-2-(hydroxymethyl)-2-methyl-2,3-dihydrobenzofuran-5-yl)pyrazolo[1,5-a]pyrimidine-3-carboxamide], `CSCC[C@@]1(C)Cc2cc(NC(=O)c3cnn4cccnc34)c(N3CCOCC3)cc2O1` [Example 444, (R)—N-(2-methyl-2-(2-(methylthio)ethyl)-6-morpholino-2,3-dihydrobenzofuran-5-yl)pyrazolo[1,5-a]pyrimidine-3-carboxamide] is 5-fold lower in Ki: 14 nM for the first, 2.8 nM for the second.

Going from `C[C@@]1(O)COc2cc(N3CCC([C@](C)(O)C(F)(F)F)CC3)c(NC(=O)c3cnn4cccnc34)cc2C1` [Example 421, N—((S)-3-hydroxy-3-methyl-7-(4-((S)-1,1,1-trifluoro-2-hydroxypropan-2-yl)piperidin-1-yl)chroman-6-yl)pyrazolo[1,5-a]pyrimidine-3-carboxamide] to `CC1(O)COc2cc(N3CCC(C(C)(O)C(F)(F)F)CC3)c(NC(=O)c3cnn4cccnc34)cc2C1` (stereo not shown) [Example 423, N-(3-hydroxy-3-methyl-7-(4-(1,1,1-trifluoro-2-hydroxypropan-2-yl)piperidin-1-yl)chroman-6-yl)pyrazolo[1,5-a]pyrimidine-3-carboxamide], the Ki falls from 100 nM to 9.6 nM (10-fold). The second binds more tightly here.

First: C[C@]1(O)COc2cc(N3CCN(CC(N)=O)CC3)c(NC(=O)c3cnn4cccnc34)cc2C1 [Example 424, (R)-N-(7-(4-(2-amino-2-oxoethyl)piperazin-1-yl)-3-hydroxy-3-methylchroman-6-yl)pyrazolo[1,5-a]pyrimidine-3-carboxamide]
Second: C[C@@]1(O)COc2cc(N3CCN(CC(N)=O)CC3)c(NC(=O)c3cnn4cccnc34)cc2C1 [Example 425, (S)-N-(7-(4-(2-amino-2-oxoethyl)piperazin-1-yl)-3-hydroxy-3-methylchroman-6-yl)pyrazolo[1,5-a]pyrimidine-3-carboxamide]
The Ki of the first is 2-fold lower: 3 nM for the first, 6 nM for the second. The first binds more tightly here.

First: C[C@]1(O)COc2cc(N3CCC(C#N)CC3)c(NC(=O)c3cnn4cccnc34)cc2C1 [Example 426, (R)-N-(7-(4-cyanopiperidin-1-yl)-3-hydroxy-3-methylchroman-6-yl)pyrazolo[1,5-a]pyrimidine-3-carboxamide]
Second: C[C@@]1(O)COc2cc(N3CCC(C#N)CC3)c(NC(=O)c3cnn4cccnc34)cc2C1 [Example 427, (S)-N-(7-(4-cyanopiperidin-1-yl)-3-hydroxy-3-methylchroman-6-yl)pyrazolo[1,5-a]pyrimidine-3-carboxamide]
The Ki of the first is 7.6-fold lower: 5 nM for the first, 38 nM for the second.

Going from `C[C@]1(O)COc2cc(N3CCC(n4ccnc4)CC3)c(NC(=O)c3cnn4cccnc34)cc2C1` [Example 428, (R)-N-(7-(4-(1H-imidazol-1-yl)piperidin-1-yl)-3-hydroxy-3-methylchroman-6-yl)pyrazolo[1,5-a]pyrimidine-3-carboxamide] to `C[C@@]1(O)COc2cc(N3CCC(n4ccnc4)CC3)c(NC(=O)c3cnn4cccnc34)cc2C1` [Example 429, (S)-N-(7-(4-(1H-imidazol-1-yl)piperidin-1-yl)-3-hydroxy-3-methylchroman-6-yl)pyrazolo[1,5-a]pyrimidine-3-carboxamide], the Ki falls from 75 nM to 12 nM (6.2-fold).

`Cn1cc(COc2cc3c(cc2NC(=O)c2cnn4cccnc24)C[C@](C)(O)CO3)cn1` [Example 431, (S)-N-(3-hydroxy-3-methyl-7-((1-methyl-1H-pyrazol-4-yl)methoxy)chroman-6-yl)pyrazolo[1,5-a]pyrimidine-3-carboxamide] and `CCn1cc(COc2cc3c(cc2NC(=O)c2cnn4cccnc24)CC(C)(C)O3)cn1` [Example 448, N-(6-((1-ethyl-1H-pyrazol-4-yl)methoxy)-2,2-dimethyl-2,3-dihydrobenzofuran-5-yl)pyrazolo[1,5-a]pyrimidine-3-carboxamide] are within 1.5-fold of each other in Ki: 20 nM for the first, 24 nM for the second.

First: CC(C)(O)CN1CCN(c2cc3c(cc2NC(=O)c2cnn4cccnc24)CC(C)(C)O3)CC1 [Example 434, N-(6-(4-(2-hydroxy-2-methylpropyl)piperazin-1-yl)-2,2-dimethyl-2,3-dihydrobenzofuran-5-yl)pyrazolo[1,5-a]pyrimidine-3-carboxamide]
Second: CCC(O)(CC)CN1CCN(c2cc3c(cc2NC(=O)c2cnn4cccnc24)CC(C)(C)O3)CC1 [Example 435, N-(6-(4-(2-Ethyl-2-hydroxybutyl)piperazin-1-yl)-2,2-dimethyl-2,3-dihydrobenzofuran-5-yl)pyrazolo[1,5-a]pyrimidine-3-carboxamide]
The Ki of the first is 2.4-fold lower: 22 nM for the first, 53 nM for the second.

Going from `CN(C)C(=O)[C@]1(C)Cc2cc(NC(=O)c3cnn4cccnc34)c(N3CCOCC3)cc2O1` [Example 438, (S)—N-(2-(dimethylcarbamoyl)-2-methyl-6-morpholino-2,3-dihydrobenzofuran-5-yl)pyrazolo[1,5-a]pyrimidine-3-carboxamide] to `CN(C)C(=O)[C@@]1(C)Cc2cc(NC(=O)c3cnn4cccnc34)c(N3CCOCC3)cc2O1` [Example 439, (R)—N-(2-(dimethylcarbamoyl)-2-methyl-6-morpholino-2,3-dihydrobenzofuran-5-yl)pyrazolo[1,5-a]pyrimidine-3-carboxamide], the Ki falls from 55 nM to 34 nM (1.6-fold). The second binds more tightly here.

First: CC1(C)Cc2cc(NC(=O)c3cnn4cccnc34)c(N3CCN(CC(=O)NCC4CCCO4)CC3)cc2O1 (stereo not shown) [Example 440, N-(2,2-dimethyl-6-(4-(2-oxo-2-(((tetrahydrofuran-2-yl)methyl)amino)ethyl)piperazin-1-yl)-2,3-dihydrobenzofuran-5-yl)pyrazolo[1,5-a]pyrimidine-3-carboxamide]
Second: CC1(C)Cc2cc(NC(=O)c3cnn4cccnc34)c(N3CCN4CCC[C@H]4C3)cc2O1 [Example 442, (S)-N-(6-(hexahydropyrrolo[1,2-a]pyrazin-2(1H)-yl)-2,2-dimethyl-2,3-dihydrobenzofuran-5-yl)pyrazolo[1,5-a]pyrimidine-3-carboxamide]
The Ki of the first is 1.8-fold lower: 53 nM for the first, 96 nM for the second. The first binds more tightly here.

Compared with `CC1(C)Cc2cc(NC(=O)c3cnn4cccnc34)c(N3CCN4CCC[C@@H]4C3)cc2O1` [Example 443, (R)-N-(6-(hexahydropyrrolo[1,2-a]pyrazin-2(1H)-yl)-2,2-dimethyl-2,3-dihydrobenzofuran-5-yl)pyrazolo[1,5-a]pyrimidine-3-carboxamide], `CC1(C)Cc2cc(NC(=O)c3cnn4cccnc34)c(O[C@@H]3CCN(CC(N)=O)C3)cc2O1` [Example 445, (R)—N-(6-((1-(2-amino-2-oxoethyl)pyrrolidin-3-yl)oxy)-2,2-dimethyl-2,3-dihydrobenzofuran-5-yl)pyrazolo[1,5-a]pyrimidine-3-carboxamide] is 12-fold lower in Ki: 38 nM for the first, 3.3 nM for the second.

First: CC1(C)Cc2cc(NC(=O)c3cnn4cccnc34)c(OC3CN(CCO)C3)cc2O1 [Example 446, N-(6-((1-(2-hydroxyethyl)azetidin-3-yl)oxy)-2,2-dimethyl-2,3-dihydrobenzofuran-5-yl)pyrazolo[1,5-a]pyrimidine-3-carboxamide]
Second: CC1(C)Cc2cc(NC(=O)c3cnn4cccnc34)c(O[C@H]3CCN(CC(N)=O)C3)cc2O1 [Example 447, (S)-N-(6-((1-(2-amino-2-oxoethyl)pyrrolidin-3-yl)oxy)-2,2-dimethyl-2,3-dihydrobenzofuran-5-yl)pyrazolo[1,5-a]pyrimidine-3-carboxamide]
The Ki of the first is 8.7-fold higher: 52 nM for the first, 6 nM for the second.
